Data taken from patent US12077503B2, “Substituted cyclic amides and their use as herbicides” (FMC CORPORATION, priority 2015, dated 2024).
Read-outs that look alike come from different tables or passages of the source.

Tests used:
Type in all cases: in vivo
[1] = test system: pigweed (Amaranthus retroflexus); assay: Test A preemergence; settings: Amaranthus retroflexus, pre-emergence, 240 h; for pest or weed control at 125 g/ha: 125 g ai/ha, Preemergence; for pest or weed control at 500 g/ha: 500 g ai/ha, preemergence
[2] = test system: Galium (catchweed bedstraw, Galium aparine); assay: Test A postemergence; settings: Galium, post-emergence, 240 h; for pest or weed control at 125 g/ha: 125 g ai/ha; for pest or weed control at 500 g/ha: 500 g ai/ha
Method in brief: (§1)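 In a loam soil and sand blend, planted seeds got a preemergence directed soil spray, and young plants at the one- to two-leaf stage, 2–10 cm high, got a postemergence application; ~10 d greenhouse hold; injury rated visually, 0 = none, 100 = complete control.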

Kochia (Kochia scoparia) = assay: Test A postemergence; settings: Bassia scoparia, post-emergence, 240 h; for pest or weed control at 125 g/ha: 125 g ai/ha; for pest or weed control at 500 g/ha: 500 g ai/ha
Method in brief: as §1

[3] = test system: barnyardgrass (Echinochloa crus-galli); assay: Test A postemergence; settings: Echinochloa crus-galli, post-emergence, 240 h; for pest or weed control at 125 g/ha: 125 g ai/ha; for pest or weed control at 500 g/ha: 500 g ai/ha
Method in brief: as §1

[4] = test system: blackgrass (Alopecurus myosuroides); assay: Test A postemergence; settings: Alopecurus myosuroides, post-emergence, 240 h; for pest or weed control at 125 g/ha: 125 g ai/ha; for pest or weed control at 500 g/ha: 500 g ai/ha
Method in brief: as §1

corn (Zea mays) = assay: Test A postemergence; settings: Zea mays, post-emergence, 240 h; for Corn plant response rating (crop injury, 0 = no effect, 100 = complete kill) at 500 g/ha: 500 g ai/ha
Method in brief: as §1

[5] = test system: giant foxtail (Setaria faberii); assay: Test A postemergence; settings: Setaria faberi, post-emergence, 240 h; for pest or weed control at 125 g/ha: 125 g ai/ha; for pest or weed control at 500 g/ha: 500 g ai/ha
Method in brief: as §1

[6] = test system: pigweed (Amaranthus retroflexus); assay: Test A postemergence; settings: Amaranthus retroflexus, post-emergence, 240 h; for pest or weed control at 125 g/ha: 125 g ai/ha, postemergence
Method in brief: as §1

[7] = test system: ragweed (common ragweed, Ambrosia elatior); assay: Test A postemergence; settings: Ambrosia artemisiifolia, post-emergence, 240 h; for pest or weed control at 125 g/ha: 125 g ai/ha, postemergence
Method in brief: as §1

[8] = test system: ryegrass, Italian (Italian ryegrass, Lolium multiflorum); assay: Test A postemergence; settings: Lolium multiflorum, post-emergence, 240 h; for pest or weed control at 125 g/ha: 125 g ai/ha, postemergence
Method in brief: as §1

[9] = test system: wheat (Triticum aestivum); assay: Test A postemergence; settings: Triticum aestivum, post-emergence, 240 h; for plant injury at 125 g/ha: 125 g ai/ha, postemergence
Method in brief: as §1

[10] = test system: barnyardgrass (Echinochloa crus-galli); assay: Test B flooded paddy test; settings: Flood, 250 g ai/ha, 0 to 100 scale where 0 is no effect and 100 is complete control
Method in brief: (§2)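 Greenhouse paddy pots with 2-leaf stage plants received compound by direct addition to floodwater 3 cm deep, kept at that level. Scored visually at 13–15 d versus controls (0 no effect; 100 complete control).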

[11] = test system: ducksalad (Heteranthera limosa); assay: Test B flooded paddy test; settings: Flood, 250 g ai/ha, 0 to 100 scale where 0 is no effect and 100 is complete control
Method in brief: as §2

rice (Oryra sativa) = assay: Test B flooded paddy test; settings: Flood, 250 g ai/ha, 0 to 100 scale where 0 is no effect and 100 is complete control
Method in brief: as §2

[12] = test system: sedge, umbrella (small-flower umbrella sedge, Cyperus difformis); assay: Test B flooded paddy test; settings: Flood, 250 g ai/ha, 0 to 100 scale where 0 is no effect and 100 is complete control
Method in brief: as §2

CN1C[C@H](c2ccc(C(F)(F)F)cc2)[C@@H](C(=O)Nc2cccc(F)c2F)C1=O [Compound 623, (3S,4S)—N-(2,3-difluorophenyl)-1-methyl-2-oxo-4-[4-(trifluoromethyl)phenyl]-3-pyrrolidinecarboxamide]
80%: pest or weed control at 125 g/ha ([1]; visual injury after approximately 10 d, 0 to 100 scale where 0 is no effect and 100 is complete control, read-out: Plant response rating, Pigweed) | pest or weed control at 500 g/ha ([1]; 0 to 100 scale, 0 = no effect, 100 = complete control, read-out: Plant response rating, Pigweed)
60%: pest or weed control at 500 g/ha ([2]; Postemergence, 0 to 100 scale where 0 is no effect and 100 is complete control, read-out: Plant response rating, Galium) | pest or weed control at 500 g/ha ([4]; Postemergence, 0 to 100 scale where 0 is no effect and 100 is complete control, read-out: Plant response rating, Blackgrass) | Corn plant response rating (crop injury, 0 = no effect, 100 = complete kill) at 125 g/ha (corn (Zea mays); 125 g ai/ha, postemergence, visual rating after approx. 10 d, 0 to 100 scale (0 no effect, 100 complete control)) | pest or weed control at 125 g/ha ([6]; visual rating after approx. 10 d, 0 to 100 scale (0 no effect, 100 complete control), read-out: Plant response rating, Pigweed) | pest or weed control at 500 g/ha ([6]; Postemergence, 500 g ai/ha, 0 to 100 scale where 0 is no effect and 100 is complete control, read-out: Plant response rating, Pigweed) | pest or weed control at 500 g/ha ([8]; Postemergence, 500 g ai/ha, 0 to 100 scale where 0 is no effect and 100 is complete control, read-out: Plant response rating, Ryegrass, Italian)
40: Plant response rating, Barnyardgrass ([10]; 13 to 15 d)
30%: pest or weed control at 125 g/ha ([8]; visual rating after approx. 10 d, 0 to 100 scale (0 no effect, 100 complete control), read-out: Plant response rating, Ryegrass, Italian)
50%: pest or weed control at 125 g/ha ([2]; postemergence, visual rating after approx. 10 d, 0 to 100 scale (0 no effect, 100 complete control), read-out: Plant response rating, Galium) | pest or weed control at 125 g/ha ([4]; postemergence, visual rating after approx. 10 d, 0 to 100 scale (0 no effect, 100 complete control), read-out: Plant response rating, Blackgrass)
0: Plant response rating, Rice (rice (Oryra sativa); 13 to 15 d) | Plant response rating, Sedge, Umbrella ([12]; 13 to 15 d)
50: Plant response rating, Ducksalad ([11]; 13 to 15 d)
0%: pest or weed control at 500 g/ha ([7]; Postemergence, 500 g ai/ha, 0 to 100 scale where 0 is no effect and 100 is complete control, read-out: Plant response rating, Ragweed)
90%: pest or weed control at 125 g/ha ([3]; postemergence, visual rating after approx. 10 d, 0 to 100 scale (0 no effect, 100 complete control), read-out: Plant response rating, Barnyardgrass) | pest or weed control at 500 g/ha ([3]; Postemergence, 0 to 100 scale where 0 is no effect and 100 is complete control, read-out: Plant response rating, Barnyardgrass) | pest or weed control at 125 g/ha ([5]; postemergence, visual rating after approx. 10 d, 0 to 100 scale (0 no effect, 100 complete control), read-out: Plant response rating, Foxtail, Giant) | pest or weed control at 500 g/ha ([5]; Postemergence, 0 to 100 scale where 0 is no effect and 100 is complete control, read-out: Plant response rating, Foxtail, Giant)
70%: pest or weed control at 500 g/ha (Kochia (Kochia scoparia); Postemergence, 0 to 100 scale where 0 is no effect and 100 is complete control, read-out: Plant response rating, Kochia) | Corn plant response rating (crop injury, 0 = no effect, 100 = complete kill) at 500 g/ha (corn (Zea mays); Postemergence, 0 to 100 scale where 0 is no effect and 100 is complete control) | plant injury at 500 g/ha ([9]; Postemergence, 500 g ai/ha, 0 to 100 scale where 0 is no effect and 100 is complete control, read-out: Plant response rating, Wheat)
20%: pest or weed control at 125 g/ha ([7]; visual rating after approx. 10 d, 0 to 100 scale (0 no effect, 100 complete control), read-out: Plant response rating, Ragweed)
40%: pest or weed control at 125 g/ha (Kochia (Kochia scoparia); postemergence, visual rating after approx. 10 d, 0 to 100 scale (0 no effect, 100 complete control), read-out: Plant response rating, Kochia) | plant injury at 125 g/ha ([9]; visual rating after approx. 10 d, 0 to 100 scale (0 no effect, 100 complete control), read-out: Plant response rating, Wheat)

O=C1NCC(c2ccccc2OC(F)(F)C(F)F)C1C(=O)Nc1cccc(F)c1F (stereo not drawn) [Compound 1054]
0%: pest or weed control at 125 g/ha ([1]; visual injury rating after approximately 10 d, read-out: Pigweed plant response rating (0 to 100 scale, 0 is no effect, 100 is complete control)) | pest or weed control at 500 g/ha ([1]; visual injury rating about 10 d after treatment, 0 to 100 scale (0 no effect, 100 complete control), read-out: Pigweed plant response rating) | pest or weed control at 125 g/ha ([2]; postemergence, visual injury on 0 to 100 scale (0 no effect, 100 complete control), approx. 10 d, read-out: Galium plant response rating) | pest or weed control at 500 g/ha ([2]; postemergence, visual injury, 0 to 100 scale (0 no effect, 100 complete control), approx. 10 d, read-out: Plant response rating, Galium) | pest or weed control at 125 g/ha (Kochia (Kochia scoparia); postemergence, visual injury on 0 to 100 scale (0 no effect, 100 complete control), approx. 10 d, read-out: Kochia plant response rating) | pest or weed control at 500 g/ha (Kochia (Kochia scoparia); postemergence, visual injury, 0 to 100 scale (0 no effect, 100 complete control), approx. 10 d, read-out: Plant response rating, Kochia) | pest or weed control at 125 g/ha ([3]; postemergence, visual injury on 0 to 100 scale (0 no effect, 100 complete control), approx. 10 d, read-out: Barnyardgrass plant response rating) | pest or weed control at 500 g/ha ([3]; postemergence, visual injury, 0 to 100 scale (0 no effect, 100 complete control), approx. 10 d, read-out: Plant response rating, Barnyardgrass) | pest or weed control at 125 g/ha ([4]; postemergence, visual injury on 0 to 100 scale (0 no effect, 100 complete control), approx. 10 d, read-out: Blackgrass plant response rating) | pest or weed control at 500 g/ha ([4]; postemergence, visual injury, 0 to 100 scale (0 no effect, 100 complete control), approx. 10 d, read-out: Plant response rating, Blackgrass) | plant injury at 125 g/ha (corn (Zea mays); 125 g ai/ha, postemergence, visual injury on 0 to 100 scale (0 no effect, 100 complete control), approx. 10 d, read-out: Corn plant response rating) | Corn plant response rating (crop injury, 0 = no effect, 100 = complete kill) at 500 g/ha (corn (Zea mays); postemergence, visual injury, 0 to 100 scale (0 no effect, 100 complete control), approx. 10 d) | pest or weed control at 125 g/ha ([5]; postemergence, visual injury on 0 to 100 scale (0 no effect, 100 complete control), approx. 10 d, read-out: Foxtail, Giant plant response rating) | pest or weed control at 500 g/ha ([5]; postemergence, visual injury, 0 to 100 scale (0 no effect, 100 complete control), approx. 10 d, read-out: Plant response rating, Foxtail, Giant) | pest or weed control at 125 g/ha ([6]; visual injury on 0 to 100 scale (0 no effect, 100 complete control), approx. 10 d, read-out: Pigweed plant response rating) | pest or weed control at 125 g/ha ([7]; visual injury on 0 to 100 scale (0 no effect, 100 complete control), approx. 10 d, read-out: Ragweed plant response rating) | pest or weed control at 125 g/ha ([8]; visual injury on 0 to 100 scale (0 no effect, 100 complete control), approx. 10 d, read-out: Ryegrass, Italian plant response rating) | plant injury at 125 g/ha ([9]; visual injury on 0 to 100 scale (0 no effect, 100 complete control), approx. 10 d, read-out: Wheat plant response rating) | pest or weed control at 250 g/ha ([10]; Echinochloa crus-galli, read-out: Barnyardgrass plant response rating) | pest or weed control at 250 g/ha ([11]; Heteranthera limosa, read-out: Ducksalad plant response rating) | pest or weed control at 250 g/ha (rice (Oryra sativa); Oryza sativa, read-out: Rice plant response rating) | pest or weed control at 250 g/ha ([12]; Cyperus difformis, read-out: Sedge, Umbrella plant response rating)
